Patent US20080292723A1, “Bioactive acid agrichemical compositions and use thereof” (priority 2007, published 2008)

Legend:
E. amylovora 153N = assay: Fire blight on crabapples; format: in vivo, Snow Drift crabapple trees; conditions: for canker, in words / shoot blight incidence, in words: day 63
Method: A study of the bioefficacy of the various agrichemical compositions, including bioactive acid solutions and blends thereof with an antibiotic agrichemical, were evaluated to assess their bioefficacy against fire blight on crabapples. The study was conducted on 5 year old Snow Drift crabapple trees, with each of the compositions being applied to ten trees in two-subplots of five trees, four different times: at 100% bloom-day 1, a second application was made on day 4, a third on day 11 and a final treatment on day 19. The trees were inoculated with E. amylovora […] at a concentration of 4×10^6 cells per milliliter on day 1, following drying of the treatment, with the inoculation being repeated on day 13. Evaluation for fire blight was completed on 100 blossoms for each of the subplots on day 12, day 19 and day 27. Additionally, the incidence of shoot infection and the length of […] evaluated on day 63. The test compositions were prepared by forming solutions of the bioactive agents. Two different dilutions of the MI2 bioactive were evaluated, the first employing 94.46 ml/gallon (25 ml/l) of water (5 ppm of each metal) and the second 188.9 ml/gallon (50 ml/l) of water (10 ppm of each metal). […] Finally, copper hydroxide was diluted at a rate of 1 lb/gallon (119.8 g/l). Each of the compositions and blends were spray applied at a rate of 50 gallons (189.3 l) pre acre. The results are presented as the mean of the counts.

[1] = tested on: Saccharomycetes Cerevisiae (Fleishmann's Bakers yeast); assay: Yeast growth inhibition by turbidity; format: cell-based; conditions: Table 12, surfactant ~0.05 wt %, neat additive, Metal 0 ppm
Method: Saccharomycetes Cerevisiae was selected as a test organism as it is generally accepted in the industry as an indicator or surrogate organism for a wide variety of fungi. In each of these experiments, the same general procedure was followed unless otherwise indicated.
Experimental Detail: A growth medium was prepared by adding 10 grams of nutrient medium (Difco Sabouraud dextrose broth from BD of Franklin Lakes, N.J., USA) to 300 ml of distilled water. Fleishmann's Bakers yeast was then added to the growth medium while mixing using a magnetic stirrer until a uniform dispersion was obtained having an initial turbidity of between about 50 and 100 NTU as measured using a HF Instruments DRT 100B Turbidity Meter. […] The system/component to be evaluated was then added to the vial and intimately shaken to ensure a good, substantially homogeneous mixture. The turbidity of each mixture was then determined and the vial transferred to an incubator at 30° C. Each vial was periodically removed from the incubator and the mixture in the vials assessed for turbidity: the specific timing for such evaluation was as set forth in the discussion of the experiments and the accompanying tables. […]
In the tables below, the results are presented as the actual turbidity readings (NTU) with a sub-table presenting the change or delta in NTU values. […]

[H]/N=C(/N)N[C@H]1[C@H](O)[C@@H](O)[C@H](O[C@@H]2O[C@@H](C)[C@](O)(C=O)[C@H]2O[C@@H]2O[C@@H](CO)[C@H](O)[C@@H](O)[C@@H]2NC)[C@@H](N/C(N)=N\[H])[C@@H]1O [streptomycin]
canker, in words (E. amylovora 153N): appeared to prevent canker | shoot blight incidence, in words (E. amylovora 153N): greatly reduced

CCCCCCCCCCCCOS(=O)(=O)[O-].[Na+]
T0 (turbidity) [1]: 48

[Cu+2].[OH-].[OH-] [copper hydroxide]
Shoot Incidence (E. amylovora 153N; Day 63, rate 5 lbs/a (2.27 kg/a), mean of counts): 1.0 | canker, in words (E. amylovora 153N): appeared to prevent canker | shoot blight incidence, in words (E. amylovora 153N): greatly reduced
